pIC50: −log10 of the molar value.
Legend:
[1] = biological target: cyclooxygenase 2 (COX-2); experiment: Procedure I: ability of the compounds to inhibit cyclooxygenase 2 (6217/6218); assay type: biochemical, Sheep; conditions: Wh Cell
[2] = biological target: cyclooxygenase 1 (COX-1); experiment: Procedure II: cyclooxygenase 1 activity (6226); assay type: biochemical, Rat; conditions: RBL-1 cell homogenate supernatant
Experimental: [Worded in the source for another target; this target is reported under the same test.] Rat basophilic leukemia cells (RBL-1; 5×10^7 viable cells/mL) were disrupted by homogenization on ice (four 20 sec bursts) with a Brinkman polytron. […] The pellet was discarded and the supernatant was saved as the source of enzymes. The supernatant was pre-incubated for five minutes at 37° C. in the presence of 2 mM of CaCl2 and compound or vehicle (1% DMSO). The conversion of AA into products by CO and LO was initiated by adding 10 μL (50 μCi) of 1-^14 C-AA to each tube and incubated at 37° C. for 20 minutes. The reaction was stopped by adjusting the pH of each sample to 3 to 3.5 with 2 M formic acid. Samples were extracted with three volumes of chloroform to isolate the products of 5-LO formed during the reaction. Fractions were dried under nitrogen, then resuspended in 40 μL of chloroform and spotted onto silica gel HL plates.
The plates were developed in A-9 solvent. The dried plates were analyzed using a Bioscan Imaging TLC scanner to determine the percentage of radiolabelled AA converted to 5-HETE (LO product) in each sample. The percentage of inhibition was calculated by:
[1-(5-HETE test)]/5-HETE control×100=% inhibition The IC50 was determined using a curve fit in Cricket Graph (Computer Associated), which provided the equation of the regressed line used in the calculation.

Structure (SMILES) | pIC50 [1] | pIC50 [2]
O=C(NNc1ccc(Cl)cc1)c1ccc(Cl)cc1 [Example 1] | 6.47 | < 5.00
O=C(NNc1ccccc1)c1ccccc1 [Example 2] | 5.00 | < 5.00
O=C(NNc1ccccc1)c1ccc(Cl)cc1 [Example 3] | 6.48 | < 5.00
Cc1ccc(NNC(=O)c2ccccc2)cc1 [Example 4] | 6.48 | < 5.00
O=C(NNc1ccc(Cl)cc1)c1ccccc1 [Example 5] | 6.28 | < 5.00
CS(=O)(=O)c1ccc(NNC(=O)c2ccccc2)cc1 [Example 6] | < 5.00 | < 5.00
Cc1ccc(NNC(=O)c2ccc(Cl)cc2)cc1 [Example 7] | 8.00 | < 5.00
CS(=O)(=O)c1ccc(NNC(=O)c2ccc(Cl)cc2)cc1 [Example 8] | < 5.00 | < 5.00
COc1ccc(C(=O)NNc2ccc(Cl)cc2)cc1 [Example 9] | 6.33 | < 5.00
COc1ccc(NNC(=O)c2ccc(Cl)cc2)cc1 [Example 10] | 6.89 | –
COc1ccc(C(=O)NNc2ccccc2)cc1 [Example 11] | < 5.00 | < 5.00
COc1ccc(NNC(=O)c2ccccc2)cc1 [Example 12] | 6.74 | < 5.00
